Results from patent US20260207623A1, “USE OF ESTETROL IN HEPATICALLY IMPAIRED PATIENTS” (ESTETRA SRL, priority 2022, published 2026).

Assay: Phase 1 pharmacokinetic study of a single oral dose of 20 mg E4 monohydrate in female subjects with normal hepatic function and mild, moderate or severe hepatic impairment (plasma, LC-MS/MS, non-compartmental analysis)
Assay type: in vivo, human
Conditions: for AUC0-24 h, GM / AUC0-24 h, Mean / AUC0-24 h, Median / AUCinf, GM / AUCinf, Mean / AUCinf, Median / AUClast, GM / AUClast, Mean / AUClast, Median / Cmax, GM / Cmax, Mean / Cmax, Median / T1/2, GM / T1/2, Mean / T1/2, Median / Tmax, Median / λz, GM / λz, Mean / λz, Median: single oral dose 20 mg E4 monohydrate, plasma
Experimental: This was a Phase 1, multi-centre, open-label, PK, and safety study of a single oral dose of 20 mg E4 monohydrate in female subjects with normal hepatic function (Group 1), mild hepatic impairment (Group 2), moderate hepatic impairment (Group 3), and severe hepatic impairment (Group 4), as defined using the Child-Pugh classification at Screening.
The study consisted of an eligibility Screening period (within 28 days prior to study drug administration), an Assessment Period with in-house period and outpatient visits (including a single oral dose of 20 mg E4 on Day 1), and a follow up visit. All subjects were confined to the study site from Day-1 (the day before dosing) until Day 4 and returned to the site every day from Day 5 to Day 9. Alternatively, the subjects could stay for a prolonged in-house period in agreement with the Investigator. The follow-up visit occurred on Day 14 (+2 days).
All subjects arrived at the study site in the morning of Day-1 in a fasted state (no food for at least 8 h, water was allowed) to have the scheduled assessments performed in order to confirm eligibility as outlined in the inclusion and exclusion criteria (Section 2.3.1 and Section 2.3.2, respectively). In the morning of Day 1 following an overnight fast, the subjects received oral dosing of 20 mg E4 monohydrate and remained at the site. Study-related assessments were performed at time points indicated in the Schedule of Assessments in Table 2.
Serial blood sampling for PK assessments started on Day 1 and proceeded until Day 9 according to the Pharmacokinetic Sampling Schedule presented in Table 3.
Each enrolled subject was to receive a single oral dose of 20 mg of E4 (estetrol) as monohydrate as a film-coated tablet.
Study drug was administered to subjects in the morning after an overnight fast of at least 8 h.
Calculation of non-compartmental PK parameters were done using WinNonlin™ Professional, Version 6.3 or higher.
The primary PK parameters to be analyzed for E4 in plasma: • Cmax=maximum observed plasma concentration • AUCinf=area under the concentration-time curve (AUC) from time zero extrapolated to infinity
The analysis of E4 and the metabolites E4-3-glucuronide and E4-16-glucuronide in plasma samples were performed at the Bioanalytical Laboratory of the CRO using a validated liquid chromatography-mass spectrometry/mass spectrometry method.
Individual and mean plasma concentrations at each sampling time point for E4 are presented by listings and descriptive summary statistics including means, geometric means (GMs), medians, ranges, standard deviations (SD) and coefficients of variation (CV). Individual, mean and/or median concentrations per hepatic function group were plotted versus time on semilogarithmic scales.
PK parameters were calculated by non-compartmental analysis. PK parameters were analysed using descriptive statistics and are presented by hepatic function group.
Analysis of variance (ANOVA) were used to compare primary PK parameters of E4 (Cmax and AUCinf) between subjects with hepatic impairment and subjects with normal hepatic function in an exploratory approach, using the log-transformed value of each PK parameter as dependent variable, and the hepatic impairment group (normal, mild, moderate, and severe) as a fixed classification factor. Geometric least squares means were used to calculate the ratios of primary PK parameters for each hepatic impairment group to those in the control group, along with 90% confidence intervals (CIs).
Additionally, the impact of age and BMI on the effect of hepatic impairment were evaluated using an ANOVA model similar as the ANOVA model described above, but with the interaction between each factor and the hepatic impairment group included as an additional factor.
The relationship between log-transformed PK parameters (Cmax and AUCinf) and continuous parameters (albumin, total bilirubin, and prothrombin time) used for the Child-Pugh score was explored by a linear regression approach. […]

CC12CCC3c4ccc(O)cc4CCC3C1C(O)C(OC1OC(C(=O)O)C(O)C(O)C1O)C2O (stereo not shown) [E4-16-glucuronide]
AUC0-24 h, GM (Mild hepatic impairment): 1017.08 ng·h/mL
AUC0-24 h, Mean (Mild hepatic impairment): 1038.91 ng·h/mL
AUC0-24 h, Median (Mild hepatic impairment): 1061.93 ng·h/mL
AUCinf, GM (Mild hepatic impairment): 1380.13 ng·h/mL
AUCinf, Mean (Mild hepatic impairment): 1389.24 ng·h/mL
AUCinf, Median (Mild hepatic impairment): 1358.39 ng·h/mL
AUClast, GM (Mild hepatic impairment): 1350.15 ng·h/mL
AUClast, Mean (Mild hepatic impairment): 1364.27 ng·h/mL
AUClast, Median (Mild hepatic impairment): 1329.47 ng·h/mL
Cmax, GM (Mild hepatic impairment): 711.100 ng/mL
Cmax, Mean (Mild hepatic impairment): 745.750 ng/mL
Cmax, Median (Mild hepatic impairment): 712.500 ng/mL
T1/2, GM (Mild hepatic impairment): 24.080 h
T1/2, Mean (Mild hepatic impairment): 24.634 h
T1/2, Median (Mild hepatic impairment): 25.699 h
Tmax, Median (Mild hepatic impairment): 0.490 h
λz, GM (Mild hepatic impairment): 0.0300 h⁻¹
λz, Mean (Mild hepatic impairment): 0.0295 h⁻¹
λz, Median (Mild hepatic impairment): 0.0270 h⁻¹
AUC0-24 h, GM (Moderate hepatic impairment): 1244.09 ng·h/mL
AUC0-24 h, Mean (Moderate hepatic impairment): 1293.40 ng·h/mL
AUC0-24 h, Median (Moderate hepatic impairment): 1323.09 ng·h/mL
AUCinf, GM (Moderate hepatic impairment): 1459.97 ng·h/mL
AUCinf, Mean (Moderate hepatic impairment): 1518.70 ng·h/mL
AUCinf, Median (Moderate hepatic impairment): 1534.85 ng·h/mL
AUClast, GM (Moderate hepatic impairment): 1375.56 ng·h/mL
AUClast, Mean (Moderate hepatic impairment): 1435.97 ng·h/mL
AUClast, Median (Moderate hepatic impairment): 1459.15 ng·h/mL
Cmax, GM (Moderate hepatic impairment): 734.210 ng/mL
Cmax, Mean (Moderate hepatic impairment): 785.625 ng/mL
Cmax, Median (Moderate hepatic impairment): 759.500 ng/mL
T1/2, GM (Moderate hepatic impairment): 13.050 h
T1/2, Mean (Moderate hepatic impairment): 14.217 h
T1/2, Median (Moderate hepatic impairment): 12.381 h
Tmax, Median (Moderate hepatic impairment): 0.985 h
λz, GM (Moderate hepatic impairment): 0.0500 h⁻¹
λz, Mean (Moderate hepatic impairment): 0.0580 h⁻¹
λz, Median (Moderate hepatic impairment): 0.0560 h⁻¹
AUC0-24 h, GM (Normal hepatic function): 643.44 ng·h/mL
AUC0-24 h, Mean (Normal hepatic function): 676.36 ng·h/mL
AUC0-24 h, Median (Normal hepatic function): 613.15 ng·h/mL
AUCinf, GM (Normal hepatic function): 896.29 ng·h/mL
AUCinf, Mean (Normal hepatic function): 946.46 ng·h/mL
AUCinf, Median (Normal hepatic function): 932.27 ng·h/mL
AUClast, GM (Normal hepatic function): 867.85 ng·h/mL
AUClast, Mean (Normal hepatic function): 919.86 ng·h/mL
AUClast, Median (Normal hepatic function): 894.59 ng·h/mL
Cmax, GM (Normal hepatic function): 353.110 ng/mL
Cmax, Mean (Normal hepatic function): 419.750 ng/mL
Cmax, Median (Normal hepatic function): 513.000 ng/mL
T1/2, GM (Normal hepatic function): 18.220 h
T1/2, Mean (Normal hepatic function): 19.245 h
T1/2, Median (Normal hepatic function): 17.755 h
Tmax, Median (Normal hepatic function): 0.500 h
λz, GM (Normal hepatic function): 0.0400 h⁻¹
λz, Mean (Normal hepatic function): 0.0402 h⁻¹
λz, Median (Normal hepatic function): 0.0391 h⁻¹
AUC0-24 h, GM (Severe hepatic impairment): 1977.74 ng·h/mL
AUC0-24 h, Mean (Severe hepatic impairment): 2295.22 ng·h/mL
AUC0-24 h, Median (Severe hepatic impairment): 1922.86 ng·h/mL
AUCinf, GM (Severe hepatic impairment): 2081.97 ng·h/mL
AUCinf, Mean (Severe hepatic impairment): 2467.86 ng·h/mL
AUCinf, Median (Severe hepatic impairment): 1959.93 ng·h/mL
AUClast, GM (Severe hepatic impairment): 2057.13 ng·h/mL
AUClast, Mean (Severe hepatic impairment): 2443.30 ng·h/mL
AUClast, Median (Severe hepatic impairment): 1951.71 ng·h/mL
Cmax, GM (Severe hepatic impairment): 901.010 ng/mL
Cmax, Mean (Severe hepatic impairment): 952.625 ng/mL
Cmax, Median (Severe hepatic impairment): 894.000 ng/mL
T1/2, GM (Severe hepatic impairment): 8.450 h
T1/2, Mean (Severe hepatic impairment): 10.103 h
T1/2, Median (Severe hepatic impairment): 8.542 h
Tmax, Median (Severe hepatic impairment): 0.500 h
λz, GM (Severe hepatic impairment): 0.0800 h⁻¹
λz, Mean (Severe hepatic impairment): 0.0995 h⁻¹
λz, Median (Severe hepatic impairment): 0.0882 h⁻¹
time to primary peak of GM plasma concentrations (all groups): ≤ 1 h
time post dose until which concentrations remained above LLOQ in at least half of the subjects (mild hepatic impairment): 96 h
time post dose until which concentrations remained above LLOQ in at least half of the subjects (moderate hepatic impairment): 72 h
time post dose until which concentrations remained above LLOQ in at least half of the subjects (normal hepatic function): 96 h
time post dose until which concentrations remained above LLOQ in at least half of the subjects (severe hepatic impairment): 48 h
Maximum value of AUC0-24 h, severe hepatic impairment compared with control group (severe vs control group): ~ 5 fold
Maximum value of AUCinf, severe hepatic impairment compared with control group (severe vs control group): ~ 4 fold
Maximum value of AUClast, severe hepatic impairment compared with control group (severe vs control group): ~ 4 fold
Maximum value of Cmax, severe hepatic impairment compared with control group (severe vs control group): ~ 2 fold
